Reference: patent publication US7795235B2, “Semi-soft c-class immunostimulatory oligonucleotides” (Coley Pharmaceutical GmbH, priority 2004, dated 2010)
Oligonucleotides are written 5' to 3', each unit as a sugar letter and its base; * is a phosphorothioate linkage, no mark a phosphodiester; rarer units and linkages stand in square brackets, end groups in braces. Plain capitals give the bases only. d = 2'-deoxy (DNA)

Columns and labels:
BALB/c mice [1] = assay type: in vivo; conditions: mouse
human TLR9 = molecular target: T1, human TLR9 (Homo sapiens, UniProt Q9NR96); assay: Stimulation of TLR9-transfected cells in vitro (luciferase readout); assay type: cell-based; conditions: quotient between highest value of all concentrations tested and medium control
T1 construct: expressed in transfected cells; host or cells: HEK 293
T1 sequence (Q9NR96 26-1032): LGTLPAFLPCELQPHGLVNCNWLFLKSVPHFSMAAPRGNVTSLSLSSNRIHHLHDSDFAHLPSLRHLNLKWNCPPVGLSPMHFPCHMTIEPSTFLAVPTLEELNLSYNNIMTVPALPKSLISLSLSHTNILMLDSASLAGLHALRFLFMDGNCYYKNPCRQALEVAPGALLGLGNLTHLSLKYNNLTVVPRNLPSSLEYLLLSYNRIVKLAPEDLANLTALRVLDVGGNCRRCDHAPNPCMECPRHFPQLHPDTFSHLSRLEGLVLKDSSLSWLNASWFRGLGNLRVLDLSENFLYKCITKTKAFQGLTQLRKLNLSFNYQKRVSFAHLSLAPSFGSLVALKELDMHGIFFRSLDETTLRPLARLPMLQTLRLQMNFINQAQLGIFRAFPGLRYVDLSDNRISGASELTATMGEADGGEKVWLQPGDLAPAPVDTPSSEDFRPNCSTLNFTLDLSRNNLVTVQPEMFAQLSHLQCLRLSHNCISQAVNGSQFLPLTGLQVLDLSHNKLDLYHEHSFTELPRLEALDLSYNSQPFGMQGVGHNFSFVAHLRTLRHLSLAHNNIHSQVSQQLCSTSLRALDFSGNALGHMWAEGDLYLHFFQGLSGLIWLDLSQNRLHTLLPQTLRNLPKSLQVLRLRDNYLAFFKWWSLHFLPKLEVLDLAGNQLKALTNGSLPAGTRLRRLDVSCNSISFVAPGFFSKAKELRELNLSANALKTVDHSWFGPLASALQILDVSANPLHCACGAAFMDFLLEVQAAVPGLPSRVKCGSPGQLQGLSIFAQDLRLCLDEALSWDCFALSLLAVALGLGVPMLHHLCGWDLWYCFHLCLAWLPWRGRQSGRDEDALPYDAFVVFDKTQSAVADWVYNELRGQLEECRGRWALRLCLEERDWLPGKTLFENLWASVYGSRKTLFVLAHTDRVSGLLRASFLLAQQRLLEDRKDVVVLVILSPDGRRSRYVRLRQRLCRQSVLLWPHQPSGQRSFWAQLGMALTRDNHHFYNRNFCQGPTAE
Procedure: Methods: HEK 293 cells transfected with human TLR9 were incubated with SEQ ID NO:1, SEQ ID NO:2, SEQ ID NO:3, SEQ ID NO:4, SEQ ID NO:5, or SEQ ID NO:6 for 16 hours. The signal was determined by a luciferase readout.
The EC50 was calculated using Sigma Plot (SigmaPlot 2002 for Windows version 8.0). The maximal stimulation index (max SI) was calculated as the quotient between the highest value of all concentrations tested for any ODN and the medium control.

mouse splenocytes = assay: Cytokine secretion from mouse splenocytes by SEQ ID NO: 2 and fragments; assay type: cell-based; conditions: 0.01-10 μg/ml, 36 hours, FIGS. 43-45
Procedure: Spleens were removed from 6 mice (male, BALB/c). The splenocytes from each spleen were separated by pushing gently through a cell sieve (70 μm pore size), and were then pooled. Splenocytes were added to wells of culture plates. 1×10^7 cells in a volume of 900 μl medium were added to each well. Medium was RPMI 1640 containing 10% fetal bovine serum. 100 μl aliquots of CpG ODN solutions in medium were added to each well to give final concentrations in the wells of 0.01-10 μg/ml. After incubation for 36 hours (37 C, 5% CO2 incubator), culture supernatants were collected and assayed for cytokine concentrations using either the Luminex multiplex assay (IFNγ, IP-10, IL-10, IL-6, TNFα) or ELISA (IFNα).
The aim of this study was to investigate the biological activity of selected fragments (putative metabolites) of SEQ ID NO: 2. Activity was determined by measuring the ability of each fragment to induce secretion of TLR9-associated cytokines from mouse splenocytes […].
Stimulation of cytokine secretion by fragments of SEQ ID NO.: 2 is shown in the attached FIGS. 43-45. The oligonucleotides examined are depicted in the Figures by SEQ ID NO and include SEQ ID NO: 15-23. The concentration of oligonucleotide used to produce a particular data point is depicted along the X-axis (μg/ml).

guinea pigs = assay: Guinea pig AHR protocol (airway resistance and lung compliance); assay type: in vivo; conditions: guinea pigs, 10, 30, 100 or 300 μl/kg, i.t.
Procedure: Male guinea pigs were sensitized on study days 0 and 4 with antigen (ovalbumin, 0.5 ml, 1% OVA i.p./s.c.) with aluminum hydroxide adjuvant. Guinea pigs were antigen challenged by exposure to inhaled ovalbumin aerosol, twice each week for two consecutive weeks. The first challenge was on study day 13. CpG ODN or vehicle (saline, 20 μl) were administered intranasally once each week, two days before the first antigen challenge of the week. Airways hyperreactivity was assessed 24 hours after the last antigen challenge by measuring bronchoconstriction (increase in airway resistance) to intravenous methacholine. For each animal, a dose-response curve to methacholine was obtained, and airway reactivity was quantified as the area under the curve.
Method: Guinea pigs were sensitized as described in Example 10. The first challenge was on study day 13. Guinea pigs were given intranasally either carrier (saline), OVA alone, of concentrations of SEQ ID NO:7 of 10 μl/kg, 30 μl/kg, 100 μl/kg, or 300 μl/kg, i.t.
Method: Guinea pigs were sensitized as described in Example 10. The first challenge was on study day 13. Guinea pigs were given intranasally either carrier (saline), OVA alone, of concentrations of SEQ ID NO:2 of 10 μl/kg, 30 μl/kg, 100 μl/kg, or 300 μl/kg, i.t.

BALB/c mice [2] = assay: Antigen-induced IgE and IgG2a production in the mouse; assay type: in vivo; conditions: i.p. 1-1000 μg/kg, serum study day 18, FIG. 19
Procedure: Methods: Mice (male BALB/c) were sensitized on study days 0 and 7 with antigen (ovalbumin, 10 μg, i.p.) and aluminum hydroxide adjuvant Pierce Alum, i.p.). Mice received SEQ ID NO:2 or SEQ ID NO:7 on study days −2, 0, 5 and 7 (i.e. two days before each sensitization and on the day of sensitization). Mice were bled by cardiac puncture on study day 18. Serum was collected by centrifugation and assayed by ELISA for ovalbumin-specific IgE and IgG2a.

[3] = 100 μg/kg intranasal, both virus-infected and antigen-challenged

T*C_G*T*C_G*T*C_G*T*T*C_G*G*C*G*C_G*C*G*C*C*G (DNA dT*dCdG*dT*dCdG*dT*dCdG*dT*dT*dCdG*dG*dC*dG*dCdG*dC*dG*dC*dC*dG) [SEQ ID NO: 2, Semi-soft class C CpG ODN]
antigen-induced eosinophilia (BALB/c mice [1]; 100 μg/kg intranasal, antigen challenge alone, FIG. 20): significantly suppress
exacerbated accumulations of neutrophils and mononuclear cells (BALB/c mice [1]; [3]): both suppressed
exacerbated airways inflammation (BALB/c mice [1]; [3]): significantly suppressed
virus-induced neutrophilia (BALB/c mice [1]; 100 μg/kg intranasal, virus infection alone, FIG. 20): did not suppress
loss of body weight (BALB/c mice [1]; both virus-infected and antigen-challenged): significantly suppressed
max SI (maximal stimulation index) (human TLR9): 20
induction of TLR9-associated cytokines IFNα, IFNγ, IP-0, IL-6, IL-10 and TNFα (mouse splenocytes): induced
AUC-resistance (airway reactivity, area under the dose-response curve) (guinea pigs): dose-dependent reduction
production of antigen (ovalbumin)-specific IgE (BALB/c mice [2]): suppressed
production of antigen (ovalbumin)-specific IgG2a (BALB/c mice [2]): potentiated
